From patent US20070112044A1, “Thiadiazoline derivative” (Kyowa Hakko Kogyo Co., Ltd., priority 2003, published 2007)

target: T1, recombinant human Eg5 motor domain protein (Homo sapiens, UniProt P52732); assay: Eg5 enzyme inhibition test (2), ATPase activity; assay type: biochemical; settings: 30° C. for 30 minutes, concentration-dependent inhibition
T1 construct: A plasmid expressing the motor domain of human Eg5 was constructed; made in house; host or cells: Escherichia coli BL21 (DE3)
T1 sequence (P52732 18-359 limits assumed): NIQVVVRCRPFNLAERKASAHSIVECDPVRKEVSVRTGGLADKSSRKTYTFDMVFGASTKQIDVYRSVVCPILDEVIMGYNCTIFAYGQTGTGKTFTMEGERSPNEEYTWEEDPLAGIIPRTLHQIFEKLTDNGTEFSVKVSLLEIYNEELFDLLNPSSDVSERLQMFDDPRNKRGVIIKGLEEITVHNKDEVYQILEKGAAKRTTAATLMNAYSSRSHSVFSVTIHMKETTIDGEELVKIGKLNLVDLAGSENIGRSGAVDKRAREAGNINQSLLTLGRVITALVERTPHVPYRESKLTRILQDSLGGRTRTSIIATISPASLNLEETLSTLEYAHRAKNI
Experimental: A recombinant human Eg5 motor domain protein was prepared by referring to the literature [Biochemistry, Vol. 35, p. 2365 (1996)]. A plasmid expressing the motor domain of human Eg5 was constructed, and transformed into Escherichia coli BL21 (DE3). The transformant was cultured at 25° C, and when the OD600 reached 0.74, isopropyl-β-D-thiogalactoside was added at a final concentration of 0.5 mmol/L. The transformant was further cultured for 4 hours, and then the culture medium was centrifuged to collect the cells. The cells were suspended in a buffer and ultrasonicated, and then the sonicated solution was centrifuged to recover the supernatant. The supernatant was purified by cation exchange column chromatography to obtain a partially purified sample. Furthermore, the partially purified sample was purified by gel filtration column chromatography to obtain a finally purified sample.
Measurement of the ATPase activity of Eg5 was carried out by referring to the literatures [EMBO Journal, Vol. 13, p. 751 (1994); Proc. Natl. Acad. Sci. USA, Vol. 89, p. 4884 (1992)]. The following two kinds of solutions were prepared: Solution A consisting of 25 mmol/L piperazine N,N′-bis(ethanesulfonate) (PIPES)/KOH (pH 6.8), 1 mmol/L ethylene glycol-bis(2-aminoethyl ether)tetraacetic acid (EGTA), 2 mmol/L MgCl2, 1 mmol/L dithiothreitol (DTT), 5 μmol/L paclitaxel, 167 μg/mL bovine serum albumin (BSA), 41.7 μg/mL tubulin (Cytoskeleton, Catalog No. TL238), 333 μmol/L MESG substrate (2-amino-6-mercapto-7-methylpurine riboside) (Molecular Probes, Catalog Number E-6646), 1.67 U/mL purine nucleoside phosphorylase (Molecular Probe, Catalog No. E-6646) and 1.33 μg/mL of the human Eg5 motor domain purified sample, and Solution B consisting of 25 mmol/L piperazine N,N′-bis(ethanesulfonate) (PIPES)/KOH (pH 6.8), 1 mmol/L ethylene glycol-bis(2-aminoethyl ether)tetraacetic acid (EGTA), 2 mmol/L MgCl2, 1 mmol/L dithiothreitol (DTT), 5 μmol/L paclitaxel and 2.5 mmol/L ATP. Solution A was dispensed into each well of a 96-well plate as 45 μL portions. Solution B was used to serially dilute a test compound. The diluted test compound solutions in a volume of 30 μL were mixed with Solution A added beforehand in each well of the 96-well plate to start the enzymatic reaction. The enzymatic reaction was performed at 30° C. for 30 minutes. Absorbance at 360 nm, which serves as an index of the ATPase activity, was measured using a plate reader (Molecular Device, SpectraMax 340PC^384). The absorbance observed in the presence of Eg5 and absence of the test compound was defined 100%, and the absorbance observed in the absence of both Eg5 and the test compound was defined 0%. The relative activity was calculated to calculate IC50 value.

Structure (SMILES) | IC50 [nM]
CC(=O)N1N=C(c2ccccc2F)SC1(C)c1ccccc1 (stereo not drawn) [Compound 22] | ≤ 10000
CC(=O)N1N=C(c2cccc(F)c2)SC1(C)c1ccccc1 (stereo not drawn) [Compound 24] | ≤ 10000
CC(=O)N1N=C(c2ccccc2F)SC1(CCCN1CCN(C)CC1)c1ccccc1 (stereo not drawn) [Compound 62] | ≤ 10000
CC(=O)N1N=C(c2ccco2)SC1(C)c1ccccc1 (stereo not drawn) [Compound 1] | ≤ 10000
CC(=O)N1N=C(c2ccccc2F)SC1(CNC(=O)CN)c1ccccc1 (stereo not drawn) [Compound 55] | ≤ 10000
CC(=O)N1N=C(C#CC(C)(C)C)SC1(CNS(C)(=O)=O)c1ccccc1 (stereo not drawn) [Compound 20] | ≤ 10000
CC(=O)N1N=C(c2cccn2C(=O)OC(C)(C)C)SC1(C)c1ccccc1 (stereo not drawn) [Compound 5] | ≤ 10000
CC(=O)N1N=C(c2ccccc2F)SC1(CCNC(=O)CCCN(C)C)c1ccccc1 (stereo not drawn) [Compound 61] | ≤ 10000
CC(=O)N1N=C(c2ccccc2)SC1(CNS(C)(=O)=O)c1ccccc1 (stereo not drawn) [Compound 10] | ≤ 10000
CC(=O)N1N=C(C(=O)NC(C)(C)C)SC1(C)c1ccccc1 (stereo not drawn) [Compound 44] | ≤ 10000
CC(=O)N1N=C(c2ccccc2F)SC1(CNS(=O)(=O)CCN)c1ccccc1 (stereo not drawn) [Compound 49] | ≤ 10000
CC(=O)N1N=C(C(=O)NC(C)(C)C)SC1(CNS(=O)(=O)CCN(C)C)c1ccccc1 (stereo not drawn) [Compound 68] | ≤ 10000

test system: HCT 116 human colon carcinoma cells; assay: Antiproliferative activity against HCT 116 human colon carcinoma cells (XTT); assay type: cell-based; settings: HCT 116 cells, 72 hours incubation, XTT, 50% inhibition of cell proliferation, read-out: GI50
Experimental: HCT 116 cells (ATCC No.: CCL-247) were placed on a 96-well microtiter plate (Nunc, 167008) at a density of 1×10^3 cells/well. The plate was incubated in a 5% CO2 incubator at 37° C. for 24 hours, and then to the plate was added test compounds diluted stepwise to 100 μL/well in total, and the plate was further incubated in a 5% CO2 incubator at 37° C. for 72 hours. To the culture medium, the XTT (sodium 3′-[1-(phenylaminocarbonyl)-3,4-tetrazolium]-bis(4-methoxy-6-nitro)benzenesulfonic acid hydrate) labeling mixture (Roche Diagnostics, 1465015) was dispensed in 50 μL/well portions, then the plate was incubated in a 5% CO2 incubator at 37° C. for 1 hour, and the absorbance was measured at 490 nm and 655 nm with a microplate spectrophotometer (Bio-Rad, Model 550). The inhibitory activity against cell proliferation was shown as GI50, a concentration of compound at which induces 50% inhibition of cell proliferation.
GI50 calculation method: The value (difference in absorbance) was calculated by subtracting the absorbance at 655 nm from the absorbance at 490 nm of each well. The difference in absorbance obtained from the cells untreated with a test compound was defined as 100%, and compared with the difference in absorbance obtained from the cells treated with the solution of the compound in the known concentration, and thereby the concentration of the compound of 50% inhibition against cell proliferation was calculated to obtain GI50.

Structure (SMILES) | GI50 [nM]
CC(=O)N1N=C(c2ccccc2F)SC1(C)c1ccccc1 (stereo not drawn) [Compound 22] | 83
CC(=O)N1N=C(c2cccc(F)c2)SC1(C)c1ccccc1 (stereo not drawn) [Compound 24] | 220
CC(=O)N1N=C(c2ccccc2F)SC1(CCCN1CCN(C)CC1)c1ccccc1 (stereo not drawn) [Compound 62] | 160
CC(=O)N1N=C(c2ccccc2F)SC1(CNC(=O)CN)c1ccccc1 (stereo not drawn) [Compound 55] | < 100
CC(=O)N1N=C(C#CC(C)(C)C)SC1(CNS(C)(=O)=O)c1ccccc1 (stereo not drawn) [Compound 20] | 200
CC(=O)N1N=C(c2cccn2C(=O)OC(C)(C)C)SC1(C)c1ccccc1 (stereo not drawn) [Compound 5] | 170
CC(=O)N1N=C(c2ccccc2F)SC1(CCNC(=O)CCCN(C)C)c1ccccc1 (stereo not drawn) [Compound 61] | < 100
CC(=O)N1N=C(c2ccccc2)SC1(CNS(C)(=O)=O)c1ccccc1 (stereo not drawn) [Compound 10] | 180
CC(=O)N1N=C(C(=O)NC(C)(C)C)SC1(C)c1ccccc1 (stereo not drawn) [Compound 44] | 410
CC(=O)N1N=C(c2ccccc2F)SC1(CNS(=O)(=O)CCN)c1ccccc1 (stereo not drawn) [Compound 49] | < 100
CC(=O)N1N=C(C(=O)NC(C)(C)C)SC1(CNS(=O)(=O)CCN(C)C)c1ccccc1 (stereo not drawn) [Compound 68] | 190

same assay, conditions: HCT-116, 72 h

Structure (SMILES) | GI50 [nM]
CC(=O)N1N=C(c2ccco2)SC1(C)c1ccccc1 (stereo not drawn) [Compound 1] | 530
